Drawing on patent publication US9006232B2, “Pyrimidone derivatives” (Mitsubishi Tanabe Pharma Corporation, priority 2009, dated 2015), this text covers IC50 for 36 compounds.

Sequence of bovine cerebral TPK1 (A0A059UE90 1-419): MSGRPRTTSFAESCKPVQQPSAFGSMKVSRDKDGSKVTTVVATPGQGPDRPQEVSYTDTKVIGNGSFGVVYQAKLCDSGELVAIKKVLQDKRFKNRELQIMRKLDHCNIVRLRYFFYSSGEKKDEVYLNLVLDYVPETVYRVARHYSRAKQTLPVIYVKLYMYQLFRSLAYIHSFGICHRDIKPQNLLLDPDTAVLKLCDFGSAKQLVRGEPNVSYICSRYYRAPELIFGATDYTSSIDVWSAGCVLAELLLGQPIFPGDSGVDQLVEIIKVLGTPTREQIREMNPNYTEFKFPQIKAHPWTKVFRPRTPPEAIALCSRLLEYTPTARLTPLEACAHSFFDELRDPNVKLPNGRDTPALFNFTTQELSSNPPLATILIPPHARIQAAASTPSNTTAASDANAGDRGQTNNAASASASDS

The target in the assay is bovine cerebral TPK1 (Bos taurus, UniProt A0A059UE90). The assay can be described thus: Inhibitory activity against P-GS1 phosphorylation by bovine cerebral TPK1. The note with it: P-GS1 phosphorylation, 41.7 μM [γ-32P] ATP, 25° C., 2 hours; read-out: IC50. The class given is biochemical. How it is done:
Inhibitory Activity of the Medicament of the Present Invention Against P-GS1 Phosphorylation by Bovine Cerebral TPK1 […] The phosphorylation was started by adding ATP, and the reaction was conducted at 25° C. for 2 hours, and then stopped by adding 21% perchloric acid on ice cooling. The reaction mixture was centrifuged at 12,000 rpm for 5 minutes and adsorbed on P81 paper (Whatmann), and then the paper was washed four times with 75 mM phosphoric acid, three times with water and once with acetone. The paper was dried, and the residual radioactivity was measured using a liquid scintillation counter.
For `Cn1c(OC2CCN(c3ccccc3CN3CCCCC3)CC2)nc(-c2ccncn2)cc1=O` [1.303, 1-Methyl-2-[1-(2-piperidin-1-ylmethyl-phenyl)piperidin-4-yloxy]-1H-[4,4′]bipyrimidinyl-6-one], the IC50 worked out at 51.2 nM.
Turning to `Cn1c(OC2CCN(c3ccc4c(c3)COC(=O)N4)CC2)nc(-c2ccncn2)cc1=O` [Compound No. 1.401, 1-Methyl-2-{[1-(2-oxo-1,4-dhydro-2H-3,1-benzoxazin-6-yl)piperidin-4-yl]oxy}-1H-[4,4′] bipyrimidinyl-6-one], the IC50 stood at 43.7 nM.
On to `CC1CCCCC1Oc1nc(-c2ccncn2)cc(=O)n1C` (stereo not drawn) [Compound No. 1.801, 1-Methyl-2-(2-methyl-cyclohexyloxy)-1H-[4,4′] bipyrimidinyl-6-one], for which the IC50 was found to be 58.1 nM.
In the case of `Cn1c(OCC(OC2CCCCO2)c2ccccc2)nc(-c2ccncn2)cc1=O` (stereo not drawn) [Compound No. 2.502, 1-Methyl-2-[2-phenyl-2-(tetrahydro-pyran-2-yloxy)ethoxy]-1H-[4,4′]bipyrimidinyl-6-one] it was 349 nM.
In the case of `Cn1c(OC2CCN(c3ccc(CN4Cc5ccccc5C4)cc3)CC2)nc(-c2ccncn2)cc1=O` [1.219, 2-{1-[4-(1,3-Dihydro-isoindol-2-ylmethyl)phenyl]piperidin-4-yloxy}-1-methyl-1H-[4,4′]bipyrimidinyl-6-one] it was 8.4 nM; in that of `CN1CCC(CCN2CCC(Oc3nc(-c4ccncn4)cc(=O)n3C)CC2)CC1` [1.503, 1-Methyl-2-{1-[2-(1-methyl-piperidin-4-yl)ethyl]piperidin-4-yloxy)-1H-[4,4′]bipyrimidinyl-6-one], 150 nM; in that of `Cn1c(OC[C@@H]2CCCN2c2ccc(F)cc2)nc(-c2ccncn2)cc1=O` [2.204, 2-[(2S)-1-(4-Fluoro-phenyl)pyrrolidin-2-ylmethoxy]-1-methyl-1H-[4,4′]bipyrimidinyl-6-one], 37.6 nM.
As for `Cn1c(OC[C@H]2CCN(c3ccsc3)C2)nc(-c2ccncc2F)cc1=O` [Compound No. 2.206, 6-(3-Fluoro-pyridin-4-yl)-3-methyl-2-[(3S)-1-(thiophen-3-yl)pyrrolidin-3-ylmethoxy]-3H-pyrimidin-4-one], the IC50 is 73.2 nM.
In the case of `Cn1c(OC[C@@H]2CCN(c3ccccc3)C2)nc(-c2ccncc2F)cc1=O` [Compound No. 2.211, 6-(3-Fluoro-pyridin-4-yl)-3-methyl-2-[(3R)-1-phenyl-pyrrolidin-3-ylmethoxy]-3H-pyrimidin-4-one] it was 658 nM; in that of `CCN(CCOc1nc(-c2ccncc2F)cc(=O)n1C)c1cccc(C)c1` [1.808, 2-[2-(Ethyl-m-tolyl-amino)-ethoxy]-6-(3-fluoro-pyridin-4-yl)-3-methyl-3H-pyrimidin-4-one], 67 nM; in that of `Cn1c(OC2CCCN(c3ccccn3)C2)nc(-c2ccncn2)cc1=O` (stereo not drawn) [1.108, 1-Methyl-2-(1-pyridin-2-yl-piperidin-3-yloxy)-1H-[4,4′]bipyrimidinyl-6-one], 11.7 nM.
In the case of `CN1CCN(Cc2ccc(N3CCC(Oc4nc(-c5ccncn5)cc(=O)n4C)CC3)cc2)CC1` [Compound No. 1.203, 1-Methyl-2-{1-[4-(4-methyl-piperazin-1-ylmethyl)phenyl]piperidin-4-yloxy}-1H-[4,4′] bipyrimidinyl-6-one] it was 6.4 nM.
In the case of `CN(C)Cc1ccc(C(=O)N2CCC(Oc3nc(-c4ccncn4)cc(=O)n3C)CC2)cc1` [Compound No. 1.601, 2-[1-(4-Dimethylaminomethyl-benzoyl)piperidin-4-yloxy]-1-methyl-1H-[4,4′]bipyrimidinyl-6-one] it was 39.8 nM.
For the compound `Cn1c(OC[C@H]2CCCN2c2ccc(F)cc2)nc(-c2ccncc2F)cc1=O` [2.203, 2-[(2R)-1-(4-Fluoro-phenyl)pyrrolidin-2-ylmethoxy]-6-(3-fluoro-pyridin-4-yl)-3-methyl-3H-pyrimidin-4-one], the IC50 turned out to be 43.1 nM.
Regarding `Cn1c(OC[C@H]2CCN(c3ccccc3)C2)nc(-c2ccncc2F)cc1=O` [2.210, 6-(3-Fluoro-pyridin-4-yl)-3-methyl-2-[(3S)-1-phenyl-pyrrolidin-3-ylmethoxy]-3H-pyrimidin-4-one], the IC50 is 134 nM.
`Cn1c(OC2CCCN(c3ccccc3)C2)nc(-c2ccncn2)cc1=O` (stereo not drawn) [Compound No. 1.101, 1-Methyl-2-(1-phenyl-piperidin-3-yloxy)-1H-[4,4′]bipyrimidinyl-6-one]: the IC50 came out at 9.4 nM.
In the case of `Cn1c(OC2CCN(c3ccc(N4CCN(C(=O)OC(C)(C)C)CC4)cc3)CC2)nc(-c2ccncn2)cc1=O` [1.211, tert-Butyl 4-{4-[4-(1-methyl-6-oxo-1,6-dihydro-[4,4′]bipyrimidinyl-2-yloxy)piperidin-1-yl]phenyl}piperazine-1-carboxylate] it was 977 nM; in that of `Cn1c(OC[C@@H]2CCN(c3ccsc3)C2)nc(-c2ccncc2F)cc1=O` [Compound No. 2.208, 6-(3-Fluoro-pyridin-4-yl)-3-methyl-2-[(3R)-1-(thiophen-3-yl)pyrrolidin-3-ylmethoxy]-3H-pyrimidin-4-one], 108 nM; in that of `COc1cccc(N2CCCC(Oc3nc(-c4ccncn4)cc(=O)n3C)C2)c1` (stereo not drawn) [1.106, 2-[1-(3-Methoxy-phenyl)piperidin-3-yloxy]-1-methyl-1H-[4,4′]bipyrimidinyl-6-one], 1.5 nM.
In the case of `Cn1c(OC2CCN(c3cccc(CN4CCCCC4)c3)CC2)nc(-c2ccncn2)cc1=O` [1.223, 1-Methyl-2-[1-(3-piperidin-1-ylmethyl-phenyl)piperidin-4-yloxy]-1H-[4,4′]bipyrimidinyl-6-one] it was 9.4 nM; in that of `Cn1c(OC2CCN(c3ccc(CN4CCCCC4)cc3)CC2)nc(-c2ccncc2)cc1=O` [1.215, 3-Methyl-2-[1-(4-piperidin-1-ylmethyl-phenyl)piperidin-4-yloxy]-6-pyridin-4-yl-3H-pyrimidin-4-one], 50.1 nM.
Consider `Cn1c(OC[C@H]2CCN(c3ccccc3)C2)nc(-c2ccncn2)cc1=O` [2.209, 1-Methyl-2-[(3S)-1-phenyl-pyrrolidin-3-ylmethoxy]-1H-[4,4′] bipyrimidinyl-6-one], for which the IC50 came out at 941 nM.
In the case of `Cc1ccccc1N1CCC(Oc2nc(-c3ccncn3)cc(=O)n2C)CC1` [1.206, 1-Methyl-2-(1-o-tolyl-piperidin-4-yloxy)-1H-[4,4′]bipyrimidinyl-6-one] it was 59.9 nM; in that of `CN1CCN(Cc2cccc(N3CCC(Oc4nc(-c5ccncn5)cc(=O)n4C)CC3)c2)CC1` [1.222, 1-Methyl-2-{1-[3-(4-methyl-piperazin-1-ylmethyl)phenyl]piperidin-4-yloxy}-1H-[4,4′] bipyrimidinyl-6-one], 21.5 nM.
In the case of `CC(=O)N1Cc2ccc(N3CCC(Oc4nc(-c5ccncn5)cc(=O)n4C)CC3)cc2C1` [1.230, 2-[1-(2-Acetyl-2,3-dihydro-1H-isoindol-5-yl)piperidin-4-yloxy]-1-methyl-1H-[4,4′]bipyrimidinyl-6-one] it was 154 nM; in that of `COc1ccc(N2CCCC(Oc3nc(-c4ccncn4)cc(=O)n3C)C2)cc1` (stereo not drawn) [1.107, 2-[1-(4-Methoxy-phenyl)piperidin-3-yloxy]-1-methyl-1H-[4,4′]bipyrimidinyl-6-one], 98.2 nM; in that of `Cn1c(OC2CCCCC2)nc(-c2ccncn2)cc1=O` [1.802, 2-Cyclohexyloxy-1-methyl-1H-[4,4′]bipyrimidinyl-6-one], 22.6 nM.
For the compound `Cn1c(OC2CCCN(c3ccc(F)cc3)C2)nc(-c2ccncn2)cc1=O` (stereo not drawn) [1.105, 2-[1-(4-Fluoro-phenyl)piperidin-3-yloxy]-1-methyl-1H-[4,4′] bipyrimidinyl-6-one], the IC50 came out at 61.4 nM.
As for `Cc1ccc(S(=O)(=O)N2CCC(Oc3nc(-c4ccncn4)cc(=O)n3C)CC2)cc1` [1.111, 1-Methyl-2-[1-(toluene-4-sulfonyl)piperidin-4-yloxy]-1H-[4,4′] bipyrimidinyl-6-one], the IC50 was determined as 194 nM.
In the case of `Cn1c(OC[C@@H]2CCCN2c2ccc(F)cc2)nc(-c2ccncc2F)cc1=O` [2.205, 2-[(2S)-1-(4-Fluoro-phenyl)pyrrolidin-2-ylmethoxy]-6-(3-fluoro-pyridin-4-yl)-3-methyl-3H-pyrimidin-4-one] it was 18.4 nM; in that of `Cn1c(OC2CCN(CCC3CCN(Cc4ccccc4)CC3)CC2)nc(-c2ccncn2)cc1=O` [Compound No. 1.502, 2-{1-[2-(1-Benzyl-piperidin-4-yl)ethyl]piperidin-4-yloxy}-1-methyl-1H-[4,4′]bipyrimidinyl-6-one], 33.9 nM; in that of `CN1CCN(Cc2ccc([C@H]3CC[C@@H](Oc4nc(-c5ccncn5)cc(=O)n4C)CC3)cc2)CC1` [Compound No. 1.904, 1-Methyl-2-{cis-4-[4-(4-methyl-piperazin-1-ylmethyl)phenyl]cyclohexyloxy}-1H-[4,4′] bipyrimidinyl-6-one], 30.3 nM.
In the case of `Cn1c(OCCc2ccccc2)nc(-c2ccncc2)cc1=O` [2.002, 3-Methyl-2-phenethyloxy-6-pyridin-4-yl-3H-pyrimidin-4-one] it was 200 nM.
In the case of `Cn1c(OC2CCN(c3ccc([N+](=O)[O-])s3)CC2)nc(-c2ccncn2)cc1=O` [1.228, 1-Methyl-2-[1-(5-nitro-thiophen-2-yl)piperidin-4-yloxy]-1H-[4,4′] bipyrimidinyl-6-one], the IC50 came out at 555 nM.
Take `Cn1c(OC2CCN(c3ccccc3CN3CCOCC3)CC2)nc(-c2ccncn2)cc1=O` [Compound No. 1.301, 1-Methyl-2-[1-(2-morpholin-4-ylmethyl-phenyl)piperidin-4-yloxy]-1H-[4,4′]bipyrimidinyl-6-one]: the IC50 turned out to be 61.1 nM.
In the case of `Cn1c(OC2CCN(c3cccc(CN4CCOCC4)c3)CC2)nc(-c2ccncn2)cc1=O` [1.221, 1-Methyl-2-[1-(3-morpholin-4-ylmethyl-phenyl)piperidin-4-yloxy]-1H-[4,4′]bipyrimidinyl-6-one] it was 31.5 nM.
